In brackets after ≈: the same amount, converted by molar mass. Where two headings read alike, the source gives them in different places.
Key:
pfDHODH = biological target: T1, pfDHODH (Plasmodium falciparum, UniProt Q08210); experiment: biochemical
T1 sequence (Q08210 24-569): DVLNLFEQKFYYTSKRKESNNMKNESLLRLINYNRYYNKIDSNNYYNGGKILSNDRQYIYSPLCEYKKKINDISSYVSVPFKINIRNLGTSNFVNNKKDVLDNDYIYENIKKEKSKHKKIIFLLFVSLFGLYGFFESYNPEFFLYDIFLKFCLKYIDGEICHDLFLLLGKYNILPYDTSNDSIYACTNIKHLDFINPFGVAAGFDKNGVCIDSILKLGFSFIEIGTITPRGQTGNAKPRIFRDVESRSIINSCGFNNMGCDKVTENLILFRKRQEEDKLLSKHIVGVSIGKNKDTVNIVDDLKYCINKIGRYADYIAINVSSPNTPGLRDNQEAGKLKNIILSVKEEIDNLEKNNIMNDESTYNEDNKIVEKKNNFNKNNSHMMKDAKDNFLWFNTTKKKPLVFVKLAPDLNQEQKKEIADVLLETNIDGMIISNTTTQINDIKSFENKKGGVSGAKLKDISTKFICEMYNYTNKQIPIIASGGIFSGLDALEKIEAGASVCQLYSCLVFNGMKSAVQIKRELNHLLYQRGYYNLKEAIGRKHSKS
Procedure: (§1) The compounds of the invention were also assessed for inhibitory activity against recombinant DHODH from the indicated species. Recombinant enzymes were produced and purified from E. coli as His6 fusion proteins and purified by Ni^+2-agarose chromatography as described.
(§2) Data were collected on a Synergy H1 hybrid plate reader in 96 well plate format at 28° C., using a final assay volume of 200 μl. Rate data (v) were converted to μmoles/min using the molar extinction coefficient for DCIP. Compounds were prepared in stock solutions of DMSO. An initial 100 mM stock was generated and this was used to prepare a 3 fold dilution series in DMSO. A 1:100 dilution of DMSO stock was made into assay buffer to generate the final concentration in the assay mix.
(§3) Assay Conditions: DHODH (ET=5-10 nM), substrates (0.2 mM L-dihydroorotate and 0.02 mM CoQD), DCIP (0.12 mM) and assay buffer (100 mM HEPES, pH 8.0, 150 mM NaCl, 10% Glycerol, 0.1%Triton) at 20° C. Concentration of compounds of the invention was varied in a 3-fold dilution series (0.01-100 uM). All data were collected in triplicate.
(§4) Fitting was performed in Graph Pad Prism to determine the IC50. Reported error represents the 95% confidence interval of the fit or the standard deviation of the mean.

dog DHODH = dog DHODH (Canis lupus familiaris, UniProt A0A8I3MWX2); experiment: Recombinant DHODH inhibition, DCIP dye-based assay; type: biochemical
Procedure: as §1, §2, §3, §4

human DHODH = human DHODH (Homo sapiens, UniProt Q02127); experiment: Recombinant DHODH inhibition, DCIP dye-based assay; type: biochemical; conditions: first value of cell, read-out: h/d/m/r DHODH (h)
Procedure: as §1, §2, §3, §4

mouse DHODH = mouse DHODH (Mus musculus, UniProt O35435); experiment: Recombinant DHODH inhibition, DCIP dye-based assay; type: biochemical; conditions: third value of cell, read-out: h/d/m/r DHODH (m)
Procedure: as §1, §2, §3, §4

rat DHODH = rat DHODH (Rattus norvegicus, UniProt Q63707); experiment: Recombinant DHODH inhibition, DCIP dye-based assay; type: biochemical; conditions: fourth value of cell, read-out: h/d/m/r DHODH (r)
Procedure: as §1, §2, §3, §4

[1] = Aqueous kinetic solubility by nephelometry; type: physicochemical; conditions: pH 6.5 phosphate buffer, 1% DMSO; for solubility kinetic: aqueous buffer, kinetic from dmso stock, read-out: Kinetic Solubility pH6.5
Procedure: Aqueous solubility was estimated by nephelometry. Concentrated stock solutions were prepared in DMSO and diluted into either pH 6.5 phosphate buffer or 0.01 M HCl (approximately pH 2.0), with the final DMSO concentration being 1%. Samples were then analyzed by nephelometry to determine the solubility range as described previously (Bevan, et al., 2000, Anal. Chem., 72, 1781-1787).

[2] = system: P. falciparum Pf3D70087/N9; experiment: SCID mouse P. falciparum in vivo efficacy model; design: species or system P. falciparum in NOD-scid IL-2Rγnull (NSG) mice; conditions: oral, starting day 3 post infection, NSG mice engrafted with human erythrocytes
Procedure: Briefly, NOD-scid IL-2Rγnull (NSG) mice (Jackson Laboratory, USA) (23-36 g) engrafted with human erythrocytes as described were infected with 20×10^6 P. falciparum Pf3D70087/N9) generated in GlaxoSmithkline Tres Cantos (Spain) by intravenous injection. Compounds were administered orally in vehicle (saline solution for Chloroquine; 0.5% w/v sodium carboxymethylcellulose, 0.5% v/v benzyl alcohol, 0.4% v/v Tween 80 in water for triazolopyrimidine analogs). Compounds were administered at target doses ranging from 0.5 to 75 mg/kg (free base equivalent) starting on day 3 post infection. Formulation concentrations were measured to obtain the actual doses administered. Parasitemia was monitored by flow cytometry and the effective dose (ED90) was calculated as described in Jimenez-Diaz, 2009, Antimicrobial agents and chemotherapy, 53, 4533-4536.

P. falciparum 3D7 = P. falciparum 3D7 growth inhibition assay (SYBR green); type: cell-based; conditions: Plasmodium falciparum, 72 h incubation, 50% growth inhibition, read-out: Pf 3D7 EC50
Procedure: The ability of triazolopyrimidine derivatives according to the invention to kill P. falciparum parasites and/or to inhibit its proliferation is assayed through their ability to inhibit Plasmodium falciparum growth. The growth inhibition assay is as follows: P. falciparum 3D7 cells were grown in Gibco-Invitrogen RPMI-1640 supplemented with 2% (w/v) red blood cells (RBCs) and either 20% human type A+ plasma (Desjardins et al., 1979, Antimicrob Agents Chemother. 16, 710-718) or with Gibco-Invitrogen 0.5% Albumax I (Coteron et al., 2011, J. Med. Chem., 54, 5540-5561). Serial dilutions of compound stocks were prepared in 100% DMSO at 200× the final concentration, followed by generation of 20× stocks in media. Cell growth was monitored by the SYBR green method as described (Deng, et al., 2014. J. Med. Chem., 57, 5381-539). Parasites (0.19 ml of 0.5% parasitemia, 0.5% HCT) were plated into 96-well microtiter plates containing 10 μL compound or DMSO control (final DMSO concentration of 0.5%). Non-parasitized RBCs (0.5% HCT) were used as a control to determine background fluorescence. After 72 h of incubation parasitized RBCs were quantitated by the SYBR Green method. 2× SYBR Green I solution (20 μL) in 1× PBS was mixed with 20 μL parasites in 96-well plates, incubated for 20 min, and after which 160 μL of 1× PBS was added. Fluorescence was detected using a BD Biosciences Acurri C6 flow cytometer and events recorded within gates that encompassed all asexual growth stages of the P. falciparum intraerythrocytic life cycle. A minimum 50,000 total events were recorded per well. Background events determined from non-parasitized RBC controls were subtracted from final counts.

[3] = system: P. falciparum FC27 lab lines; experiment: Ex vivo schizont maturation assay, lab line; type: cell-based; conditions: Plasmodium falciparum, read-out: P. falciparum FC27 lab lines IC50
Procedure: (§5) To assess comparative activity between P. falciparum and P. vivax strains compounds were tested in an ex vivo parasite assay using Plasmodium isolates from patients who visited clinics in Timika (Papua, Indonesia). Parasites in this region are resistant to standard anti-malarials such as chloroquine. P. vivax can not be cultivated in vitro so the ex vivo assay is the only method to evaluate drug sensitivity. Patients with parasitemia between 2000 and 80,000 ul^−1 were eligible for recruitment into the study. Blood was collected by venipuncture, host white blood cells were removed and packed infected red blood cells were used for the ex vivo studies. Drug susceptibility was measured as previously described (Russell et al., 2008, Antimicrobial Agents Chemother., 52, 1040-1045; Marfurt et al., 2011, Antimicrobial Agents Chemother., 55, 961-966; Marfurt et al., 2011, Antimicrobial Agents Chemother., 55, 4461-4464). Briefly two hundred μl of a 2% hematocrit blood mixture, consisting of RPMI 1640 medium plus 10% AB+ human serum (P. falciparum) or McCoy's 5A medium plus 20% AB+ human serum (P. vivax) was added to each well of pre-dosed drug plates containing serial 2-fold dilutions of the anti-malarial compound. A candle jar was used to mature parasites at 37° C. for 35-56 hrs. […] Thick blood films made from each well were stained with 5% Giemsa for 30 min and examined microscopically. The number of schizonts per 200 asexual stage parasites was determined and normalized to the control well. Data were analyzed by nonlinear regression (WinNonLn 4.1) to determine the IC50 using the inhibitory sigmoid Emax model.
(§6) Drug plate quality was assured by running schizont maturation assays (two independent experiments) with the chloroquine-resistant strain K1 and the chloroquine-sensitive strain FC27. For microscopy slide reading QC, two randomly selected drugs per isolate were read by a second microscopist. […] If necessary, discrepant results were resolved by a third reading by an expert microscopist.

[4] = system: P. falciparum clinical isolates; experiment: Ex vivo schizont maturation assay, clinical isolates; type: cell-based; conditions: Plasmodium falciparum, read-out: P. falciparum clinical isolates IC50
Procedure: as §5, §6

[5] = system: P. vivax clinical isolates; experiment: as above; type: cell-based; conditions: for IC50: Plasmodium vivax, read-out: P. vivax clinical isolates IC50
Procedure: as §5, §6

[6] = recombinant enzyme, DCIP assay, IC50, read-out: PfDHODH
[7] = dog DHODH, second value of cell, read-out: h/d/m/r DHODH (d)
[8] = ex vivo schizont maturation, 35-56 hrs, FC27 chloroquine sensitive lab strain
[9] = ex vivo schizont maturation, 35-56 hrs, isolates from Timika (Papua, Indonesia)

Chain of dog DHODH (A0A8I3MWX2 1-406): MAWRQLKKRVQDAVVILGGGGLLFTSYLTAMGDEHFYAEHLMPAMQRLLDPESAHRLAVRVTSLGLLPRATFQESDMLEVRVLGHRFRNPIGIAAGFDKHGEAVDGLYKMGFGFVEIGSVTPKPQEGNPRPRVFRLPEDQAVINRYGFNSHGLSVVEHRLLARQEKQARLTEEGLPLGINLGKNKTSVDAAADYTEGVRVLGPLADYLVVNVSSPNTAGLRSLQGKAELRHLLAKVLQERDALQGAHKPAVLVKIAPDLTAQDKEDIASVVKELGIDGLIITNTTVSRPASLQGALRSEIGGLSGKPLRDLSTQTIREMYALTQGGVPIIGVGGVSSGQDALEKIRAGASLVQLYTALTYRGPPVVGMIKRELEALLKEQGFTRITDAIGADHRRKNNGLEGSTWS
Chain of mouse DHODH (O35435 whole entry): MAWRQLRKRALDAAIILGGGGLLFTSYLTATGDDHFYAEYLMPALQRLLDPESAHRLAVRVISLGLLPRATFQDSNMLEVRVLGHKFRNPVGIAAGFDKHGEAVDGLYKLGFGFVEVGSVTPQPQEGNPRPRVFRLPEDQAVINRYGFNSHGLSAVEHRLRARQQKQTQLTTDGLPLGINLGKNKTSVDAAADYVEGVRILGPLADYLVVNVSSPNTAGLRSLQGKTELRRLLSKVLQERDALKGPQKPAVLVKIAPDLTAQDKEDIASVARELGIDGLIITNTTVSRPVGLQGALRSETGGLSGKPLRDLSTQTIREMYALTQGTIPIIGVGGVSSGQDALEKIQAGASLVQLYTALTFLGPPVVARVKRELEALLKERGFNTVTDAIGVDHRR
Chain of rat DHODH (Q63707 whole entry): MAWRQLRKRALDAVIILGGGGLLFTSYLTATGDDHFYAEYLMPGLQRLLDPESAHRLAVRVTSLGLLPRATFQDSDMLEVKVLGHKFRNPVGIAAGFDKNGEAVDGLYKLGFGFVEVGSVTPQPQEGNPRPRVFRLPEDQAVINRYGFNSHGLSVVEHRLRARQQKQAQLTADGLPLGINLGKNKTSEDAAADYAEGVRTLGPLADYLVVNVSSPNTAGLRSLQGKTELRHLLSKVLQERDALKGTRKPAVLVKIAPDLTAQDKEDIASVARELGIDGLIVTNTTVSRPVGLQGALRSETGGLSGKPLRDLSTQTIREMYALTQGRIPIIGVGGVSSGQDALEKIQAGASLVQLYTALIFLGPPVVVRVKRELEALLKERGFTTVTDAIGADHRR
Chain of human DHODH (Q02127 whole entry): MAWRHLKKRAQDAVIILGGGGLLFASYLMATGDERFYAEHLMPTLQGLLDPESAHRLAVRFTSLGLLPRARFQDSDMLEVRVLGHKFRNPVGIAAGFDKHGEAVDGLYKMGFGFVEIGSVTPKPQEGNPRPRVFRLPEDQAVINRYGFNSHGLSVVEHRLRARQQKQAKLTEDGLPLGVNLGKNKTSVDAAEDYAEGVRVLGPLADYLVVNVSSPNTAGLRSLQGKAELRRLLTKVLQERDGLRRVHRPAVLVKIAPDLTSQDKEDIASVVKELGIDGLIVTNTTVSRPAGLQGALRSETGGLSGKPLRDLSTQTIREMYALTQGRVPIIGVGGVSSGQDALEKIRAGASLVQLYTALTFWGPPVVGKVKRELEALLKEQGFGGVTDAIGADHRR

Compound	IC50 (pfDHODH; [6]) [nM]	IC50 (dog DHODH; [7]) [nM]	IC50 (human DHODH) [nM]	IC50 (mouse DHODH) [nM]	IC50 (rat DHODH) [nM]	ED90 [2] [mg/kg per day]	EC50 (P. falciparum 3D7) [nM]	solubility kinetic [1] [µg/mL]	other results
Cc1cc(Nc2ccc(C(F)(F)F)nc2)n2nc(C(C)(F)F)nc2n1 [Reference 1]	50	21000	58000	74000	4400				Kinetic Solubility pH6.5 [1]: 6.3 μg/ml
CCc1nc(N)nc(N)c1-c1ccc(Cl)cc1 [Pyrimethamine]						0.9			
Cc1cc(Nc2ccc(C(F)(F)F)cc2)n2nc(C(C)(F)F)nc2n1 [Reference 3]		> 100000	> 100000	24000	7200	26	8.3	50 (≈ 140 µM)	IC50 (pfDHODH): 31 nM
Cc1cc(Nc2ccc(S(F)(F)(F)(F)F)cc2)n2nc(C(C)(F)F)nc2n1 [Reference 4]						8.1	5	25 (≈ 60.2 µM)	IC50 [3, 8]: 177 nM; IC50 [4, 9]: 190 nM; IC50 [5, 9]: 920 nM
CCN(CC)CCCC(C)Nc1ccnc2cc(Cl)ccc12 (stereo not drawn) [Chloroquine]						4.3			IC50 [3]: 23 to 32 nM; IC50 [4]: 86 to 101 nM; IC50 [5]: 43 to 147 nM
Cc1cc(Nc2ccc(C(F)(F)F)cn2)n2nc(C(F)(F)F)nc2n1 [Reference 2]	37		> 50000				70	1.6 (≈ 4.42 µM)	
Cc1cc(Nc2ccc(C(F)(F)F)nc2)n2nc(C(F)(F)F)nc2n1 [Compound (3), 5-methyl-2-(trifluoromethyl)-N-(6-(trifluoromethyl)pyridin-3-yl)-[1,2,4]triazolo[1,5-a]pyrimidin-7-amine]	41		> 100000	33000	8400		35	50 (≈ 138 µM)	IC50 (dog DHODH): 39000 nM
C[C@H]1[C@H](OC(=O)CCC(=O)O)O[C@@H]2O[C@@]3(C)CC[C@H]4[C@H](C)CC[C@@H]1[C@@]24OO3 [Artesunate]									IC50 [3]: 3.6 to 11 nM; IC50 [5]: 0.8 to 2.9 nM
Cc1cc(Nc2ccc(C(F)(F)F)nc2)n2nc(C(C)(F)F)nc2n1 [Compound (1), 2-(1,1-difluoroethyl)-5-methyl-N-(6-(trifluoromethyl)pyridin-3-yl)-[1,2,4]triazolo[1,5-a]pyrimidin-7-amine]	30	65000	> 100000	54000	24000	2.6	11	> 100	IC50 [3, 8]: 292 nM; IC50 [4, 9]: 151 nM; IC50 [5, 9]: 175 nM; comparative activity between P. falciparum and P. vivax ([5]; ex vivo parasite assay): equivalent activity on both P. falciparum and P. vivax
Cc1nc2nc(C(C)(F)F)nn2c(Nc2ccc(C(F)(F)F)nc2)c1F [Compound (2), 2-(1,1-difluoroethyl)-6-fluoro-5-methyl-N-(6-(trifluoromethyl)pyridin-3-yl)-[1,2,4]triazolo[1,5-a]pyrimidin-7-amine]	23	9200	62000	20000	15700		16	> 100	

Reference: patent US20180065968A1, “NEW SUBSTITUTED TRIAZOLOPYRIMIDINES AS ANTI-MALARIAL AGENTS” (BOARD OF REGENTS OF THE UNIVERSITY OF TEXAS SYSTEM, priority 2015, published 2018)
